According to PMC2360532, “Somatostatin receptor expression, tumour response, and quality of life in patients with advanced hepatocellular carcinoma treated with long-acting octreotide” (British Journal of Cancer, 2006):

Legend:
HCC = details: ref Kouroumalis et al (1998), cited from earlier work
Excerpt: High-affinity somatostatin receptors capable of binding octreotide are present in approximately 40% of HCC, and not in adjacent liver. However, the numbers of high-affinity receptors are lower than reported for neuroendocrine tumours ([Reubi et al, 1999]). Somatostatin is a potent inhibitor of several growth factors and angioneogenesis ([Flori ... || Most patients with advanced HCC have a dismal prognosis ([Leung and Johnson, 2001]). However, a treatment that benefits only a subset of patients may still be clinically worthwhile. The very different outcomes in the randomised trials by Kouroumalis and Yuen probably reflect differences in patient selection ([Kouroumalis et al, 1998]; [Yuen et al, 2002]). The Yuen study had subjects with more advanced disease, a higher proportion with viral hepatitis, and a median survival of only 2 months. Our study population was more similar to the Kouroumalis study population (Table 4) and our median survi ...

[1] = cited from earlier work
Excerpt: Safety is important for people with comorbidities. There is limited information available about the elimination kinetics of octreotide in cirrhosis. […] Since pharmacokinetics may be altered in patients with cirrhosis, it was considered necessary to determine whether liver impairment predisposes to toxicity and ...

clinical = details: human, plasma, im, 20 mg
Description: (§1) Blood was also sampled for octreotide pharmacokinetics and assessment of chromogranin A levels before the 4th and 7th doses.
(§2) Samples were taken immediately before the 4th and 7th doses of octreotide (weeks 12 and 24 of treatment). These time points were selected in order to assess trough octreotide plasma concentrations at steady state after three doses and to determine potential octreotide accumulation in this cirrhotic population with more continued dosing. Additional samples were also collected in some cases. […] The lower limit of quantification was 50 pg ml^−1 for a 50 μl plasma sample.

[2] = tested on: patients with advanced HCC; test: Serious adverse events and tolerability; assay type: in vivo, human
Description: The planned duration of treatment was 12 months in the absence of disease progression, unacceptable toxicity, or withdrawal at the patient's or doctor's discretion. An extension phase allowed treatment to continue beyond 12 months on an individual basis at the discretion of the principal investigator.
Subjects were seen monthly for clinical review, blood tests, and administration of the study drug. Response was assessed using the RECIST (response evaluation criteria in solid tumours) criteria ([Therasse et al, 2000]). Radiological assessment was undertaken 3-monthly and any partial or complete responses were confirmed 1 month later.

[3] = patients who remained on the study for 6 months or more
Description: as §1, §2

[4] = short-acting form, ref Jenkins et al (1998)

In the case of `C[C@@H](O)[C@@H]1NC(=O)[C@H](CCCCN)NC(=O)[C@@H](Cc2c[nH]c3ccccc23)NC(=O)[C@H](Cc2ccccc2)NC(=O)[C@@H](NC(=O)[C@H](N)Cc2ccccc2)CSSC[C@@H](C(=O)N[C@H](CO)[C@@H](C)O)NC1=O` [octreotide], the Median survival (HCC; short-acting octreotide arm vs 4 months in untreated control, HCC) is listed as 13 months, the 12-month survival (HCC; short-acting octreotide arm vs 13% in untreated control, P=0.002) is listed as 56% and the Plasma concentrations ([1]; 30 mg i.m. dose, six patients with acromegaly (noncirrhotic), ref Stewart et al, 1995) is listed as 1.682 ± 0.174 ng/mL. For the same compound, the “Clearance in patients with cirrhosis” value [1, 4] was “reduced”, the “Half-life in patients with cirrhosis” value [1, 4] was “prolonged” and the level at 2016 h (clinical) was 2.21 ng/mL. The level at 4032 h (clinical) was 3.38 ng/mL, the level at 6480 h (clinical) was 3.24 ng/mL and the “Serious adverse events attributed to the drug” value ([2]; 20 mg i.m. every 28 days, advanced HCC) was “No serious adverse events were attributed”. For the same compound, the “Treatment stopped because of adverse effects (cramps), cases” value ([2]; 63 patients) was “one” and the “Accumulation of octreotide in plasma” value [3] was “no evidence of accumulation”.
